# Article PMC10220892 (Pharmaceutics, 2023)
# How the values were obtained:
# [1] = system: U87MG-TMZR cells (TMZ-resistant U87MG cells); test: MTT cell viability assay; format: cell-based; conditions: Homo sapiens, U-87 MG, 72 h
# Protocol: (§1) U87MG, U251, U87MG-EGFRvIII, and U87MG-TMZR cells were cultured in DMEM supplemented with 10% FBS and plated at low density in 96-well plates (2000 cells per well). Then, the cells were treated with different concentrations of gefitinib or compound SMUZ106 for a period of 72 h. MTT (5 mg/mL) was added to each well, and the cells were incubated for another 4 h at 37 °C. The optical density value at 570 nm was measured using a microplate reader (TECAN, Männedorf, Switzerland).
# [2] = system: U87MG cells; test: MTT cell viability assay; format: cell-based; conditions: Homo sapiens, U-87 MG, 72 h
# Protocol: as §1
# [3] = system: U87MG-EGFRvIII cells; test: Cell cycle analysis by flow cytometry (PI); format: cell-based; conditions: 48 h; for cells in S phase: control 35.68%; for cells in G0/G1 phase: control 50.82%
# Protocol: (§2) U87MG-EGFRvIII cells were seeded into 6-well plates and treated with different concentrations of the compound SMUZ106 (2.5, 5, and 10 μM) for 48 h. Following the treatment, the cells were harvested, washed twice with cold PBS, and fixed overnight at 4 °C in 70% ethanol, then stained with PI solution to analyze the cell cycle distribution via flow cytometry. The results were determined using the ModFit LT 5.0 software. Each assay was performed in triplicates.
# [4] = target: T1, EGFR (Homo sapiens, UniProt P00533); design: method as in PMID 27132165; conditions: read-out: IC50 EGFR kinase; cited from earlier work
# [5] = target: T2, HER4 (Homo sapiens, UniProt Q15303); design: method as in PMID 27132165; conditions: Figure S1; read-out: IC50 HER4 kinase; cited from earlier work
# [6] = system: U87MG-EGFRvIII cells; test: MTT cell viability assay; format: cell-based; conditions: 72 h
# Protocol: as §1
# [7] = system: U251 cells; test: MTT cell viability assay; format: cell-based; conditions: Homo sapiens, U-251, 72 h
# Protocol: as §1
# [8] = target: T3, HER2 (Homo sapiens, UniProt P04626); design: method as in PMID 27132165; conditions: Figure S1; read-out: IC50 HER2 kinase; cited from earlier work
# [9] = Solubility by HPLC; format: physicochemical
# Protocol: The solubility of the compound SMUZ106 and its related salts in artificial gastric juice, artificial intestinal fluid, and physiological saline were determined by HPLC. […] Therefore, SMUZ106 hydrochloride was selected for the pharmacokinetic analysis.
# [10] = target: T3, HER2; test: HTRF KinEASE-TK single-point kinase assay; format: biochemical; conditions: read-out: inhibition rate HER2
# Protocol: (§3) IC50 determinations for EGFR were performed with the Z’-LYTE technology platform (Life Technologies), according to the manufacturer’s instructions. The enzyme activity assays of compound SMUZ106 were performed at a single-point concentration (1 μM) against 76 kinases by using the HTRF KinEASE-TK assay according to the manufacturer’s instructions.
# [11] = target: T2, HER4; test: HTRF KinEASE-TK single-point kinase assay; format: biochemical; conditions: read-out: inhibition rate HER4
# Protocol: as §3
# [12] = target: T1, EGFR; test: HTRF KinEASE-TK single-point kinase assay; format: biochemical; conditions: read-out: inhibition rate EGFR
# Protocol: as §3
# [13] = system: U87MG-EGFRvIII cells; test: Apoptosis analysis by flow cytometry (Annexin V-FITC/PI); format: cell-based; conditions: 48 h
# Protocol: as §2
# To perform the apoptosis analysis, after being washed with PBS, the cells were resuspended in 195 μL Annexin V-FITC binding solution, and then 5 µL of Annexin V-FITC was added, followed by 10 µL PI. Following incubation at room temperature for 20 min in the dark, cell apoptosis rates were detected by flow cytometry. The data were analyzed using FlowJo_V10 software.
# [14] = Pharmacokinetics study in mice; format: in vivo; conditions: male, Kunming, mouse, plasma
# Protocol: A total of 72 male Kunming mice with an average weight of 20 g were purchased from Southern Medical University (Guangzhou, China) and divided into three groups, with […]. SMUZ106 was dissolved in 0.5% CMC-Na to prepare a suspension for oral administration (100 mg/kg). […] For the intravenous and oral administration, blood samples (0.5 mL) were collected from the mice’s orbital veins and placed into heparinized tubes at 0.25, 0.5, 1, 2, 6, 8, 12, and 24 h following administration. After centrifuging all the samples at 8000 r/min for 5 min, the supernatants were stored at −80 °C until analysis. Subsequently, the plasma samples were transferred to a clean 1.5 mL centrifuge tube and spiked with 100 μL of the internal standard solution (gefitinib, 1.0 μg/mL). Methyl alcohol was then added to the mixture, vortexed for 2 min, and centrifuged at 13,000 r/min for 30 min. […] A 10 µL aliquot of each sample was injected into the LC-MS/MS system for analysis. The pharmacokinetic parameters, such as half-life (t1/2), time of peak plasma concentration (Tmax), maximum plasma concentration (Cmax), mean residence time (MRT), area under the concentration–time curve (AUC), and bioavailability (F), were determined using DAS 2.0 software.
# [15] = system: phospho-EGFR; test: Western blotting of EGFR signaling in U87MG cells; format: cell-based; conditions: 2.5, 5 and 10 μM, 48 h
# Protocol: (§4) The GBM cells were exposed to compound SMUZ106 at different concentrations (2.5, 5, and 10 μM) for 48 h, and the total proteins were extracted from the cells using RIPA lysis buffer. The concentration of the obtained protein was determined using the BCA Protein Assay Kit (Thermo Fisher, Waltham, MA, USA). Equivalent protein samples (30 μg) were subjected to SDS-PAGE gels and transferred to NC membranes (PALL, Port Washington, NY, USA). Then, the membranes were blocked with 5% milk in TBST for 1 h at RT and probed with primary antibodies diluted overnight at 4 °C, followed by incubation with appropriate secondary antibodies for 1 h at RT. Finally, the protein bands were visualized and scanned using an imaging system (ProteinSimple, Santa Clara, CA, USA).
# [16] = system: phospho-EGFR; test: Western blotting of EGFR signaling in U87MG-EGFRvIII cells; format: cell-based; conditions: 2.5, 5 and 10 μM, 48 h
# Protocol: as §4
# [17] = system: panel of 76 tyrosine kinases; test: Kinase selectivity screen (HTRF KinEASE-TK); format: biochemical; conditions: 1 μM, 76 kinases
# Protocol: as §3
# [18] = system: U87MG-EGFRvIII cells; test: Colony formation assay; format: cell-based; conditions: 1, 3 and 10 μM
# Protocol: (§5) U87MG, U251, U87MG-EGFRvIII, and U87MG-TMZR cells were trypsinized, and suspended in 6-well plates. After a period of 24 h, the cells were exposed to compound SMUZ106 with different concentrations (1, 3, and 10 μM), and the U87MG-TMZR cells were exposed to compound SMUZ106 with different concentrations (3, 10, and 30 μM) for 72 h. After 10–14 days of cultivation, the cells were stained with 0.4% trypan blue to visualize the formed colony and to count the number of colonies by Enzyme-Linked Immunospot Analyzer (CTL, Shaker Heights, OH, USA).
# [19] = system: U87MG-TMZR cells; test: Colony formation assay; format: cell-based; conditions: 3, 10 and 30 μM
# Protocol: as §5
# [20] = system: U87MG cells; test: Colony formation assay; format: cell-based; conditions: 1, 3 and 10 μM
# Protocol: as §5
# [21] = system: U251 cells; test: Colony formation assay; format: cell-based; conditions: 1, 3 and 10 μM
# Protocol: as §5
# T3 sequence (P04626 23-1255): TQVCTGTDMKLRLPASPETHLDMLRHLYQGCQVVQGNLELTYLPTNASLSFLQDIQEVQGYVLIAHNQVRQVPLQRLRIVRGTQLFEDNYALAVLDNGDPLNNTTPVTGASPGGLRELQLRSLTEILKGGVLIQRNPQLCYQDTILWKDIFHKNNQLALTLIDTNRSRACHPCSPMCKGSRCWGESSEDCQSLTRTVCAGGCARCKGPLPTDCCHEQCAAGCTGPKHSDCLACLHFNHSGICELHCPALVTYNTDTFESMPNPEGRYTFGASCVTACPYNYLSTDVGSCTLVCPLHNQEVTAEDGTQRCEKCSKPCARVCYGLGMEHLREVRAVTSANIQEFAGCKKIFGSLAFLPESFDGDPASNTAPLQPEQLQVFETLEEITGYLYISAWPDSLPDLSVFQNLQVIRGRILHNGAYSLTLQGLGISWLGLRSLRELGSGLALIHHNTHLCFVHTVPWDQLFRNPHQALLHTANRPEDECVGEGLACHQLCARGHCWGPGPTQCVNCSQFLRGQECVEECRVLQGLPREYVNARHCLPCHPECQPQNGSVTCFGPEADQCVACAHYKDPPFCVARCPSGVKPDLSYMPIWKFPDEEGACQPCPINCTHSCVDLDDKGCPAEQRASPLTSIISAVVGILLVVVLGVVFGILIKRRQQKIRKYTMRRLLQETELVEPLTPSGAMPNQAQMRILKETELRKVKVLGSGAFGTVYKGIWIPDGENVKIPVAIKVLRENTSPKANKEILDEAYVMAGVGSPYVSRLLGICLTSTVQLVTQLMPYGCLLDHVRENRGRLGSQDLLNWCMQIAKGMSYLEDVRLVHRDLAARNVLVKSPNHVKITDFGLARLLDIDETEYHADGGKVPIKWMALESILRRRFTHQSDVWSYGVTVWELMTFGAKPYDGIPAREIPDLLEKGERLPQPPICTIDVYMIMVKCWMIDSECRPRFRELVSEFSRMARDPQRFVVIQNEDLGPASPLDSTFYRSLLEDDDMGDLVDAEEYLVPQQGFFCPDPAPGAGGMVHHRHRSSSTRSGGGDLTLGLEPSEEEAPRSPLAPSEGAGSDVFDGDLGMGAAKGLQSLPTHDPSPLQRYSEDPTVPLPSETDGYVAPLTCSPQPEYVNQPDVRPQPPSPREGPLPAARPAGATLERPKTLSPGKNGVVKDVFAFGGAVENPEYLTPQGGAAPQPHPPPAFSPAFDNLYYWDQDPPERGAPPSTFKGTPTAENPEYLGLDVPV
# T2 sequence (Q15303 26-1308): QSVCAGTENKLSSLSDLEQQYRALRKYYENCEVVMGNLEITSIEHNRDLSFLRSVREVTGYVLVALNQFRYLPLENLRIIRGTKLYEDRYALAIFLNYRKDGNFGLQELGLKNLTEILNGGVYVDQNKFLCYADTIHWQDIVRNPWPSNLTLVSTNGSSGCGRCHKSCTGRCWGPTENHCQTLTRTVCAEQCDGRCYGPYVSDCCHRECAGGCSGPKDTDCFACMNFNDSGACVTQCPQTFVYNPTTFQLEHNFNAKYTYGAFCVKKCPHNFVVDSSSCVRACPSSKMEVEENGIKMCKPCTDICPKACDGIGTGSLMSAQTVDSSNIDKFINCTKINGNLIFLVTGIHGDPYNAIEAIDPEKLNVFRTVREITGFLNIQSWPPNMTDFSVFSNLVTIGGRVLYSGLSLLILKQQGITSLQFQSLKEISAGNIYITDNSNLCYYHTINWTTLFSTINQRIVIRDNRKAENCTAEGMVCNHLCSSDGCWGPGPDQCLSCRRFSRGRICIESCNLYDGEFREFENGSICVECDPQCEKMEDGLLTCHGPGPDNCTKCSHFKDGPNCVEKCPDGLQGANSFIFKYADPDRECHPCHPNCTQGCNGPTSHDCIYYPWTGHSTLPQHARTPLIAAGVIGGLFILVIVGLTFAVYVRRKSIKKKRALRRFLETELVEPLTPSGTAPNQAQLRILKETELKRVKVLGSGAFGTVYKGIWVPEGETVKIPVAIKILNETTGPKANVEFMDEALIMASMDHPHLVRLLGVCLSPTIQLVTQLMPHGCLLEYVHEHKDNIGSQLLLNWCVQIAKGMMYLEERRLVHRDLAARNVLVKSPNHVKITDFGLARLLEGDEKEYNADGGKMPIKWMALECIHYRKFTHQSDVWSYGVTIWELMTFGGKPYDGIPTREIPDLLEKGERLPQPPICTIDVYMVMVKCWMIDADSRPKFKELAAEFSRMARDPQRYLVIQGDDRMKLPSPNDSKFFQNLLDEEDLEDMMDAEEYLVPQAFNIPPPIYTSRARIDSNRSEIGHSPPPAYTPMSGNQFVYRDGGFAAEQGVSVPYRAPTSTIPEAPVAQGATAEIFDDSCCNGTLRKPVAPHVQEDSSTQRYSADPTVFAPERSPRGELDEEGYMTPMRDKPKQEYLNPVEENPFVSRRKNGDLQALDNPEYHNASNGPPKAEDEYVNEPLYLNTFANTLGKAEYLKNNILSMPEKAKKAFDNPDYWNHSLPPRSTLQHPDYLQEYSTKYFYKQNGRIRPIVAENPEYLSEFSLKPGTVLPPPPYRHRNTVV
# T1 sequence (P00533 25-1210): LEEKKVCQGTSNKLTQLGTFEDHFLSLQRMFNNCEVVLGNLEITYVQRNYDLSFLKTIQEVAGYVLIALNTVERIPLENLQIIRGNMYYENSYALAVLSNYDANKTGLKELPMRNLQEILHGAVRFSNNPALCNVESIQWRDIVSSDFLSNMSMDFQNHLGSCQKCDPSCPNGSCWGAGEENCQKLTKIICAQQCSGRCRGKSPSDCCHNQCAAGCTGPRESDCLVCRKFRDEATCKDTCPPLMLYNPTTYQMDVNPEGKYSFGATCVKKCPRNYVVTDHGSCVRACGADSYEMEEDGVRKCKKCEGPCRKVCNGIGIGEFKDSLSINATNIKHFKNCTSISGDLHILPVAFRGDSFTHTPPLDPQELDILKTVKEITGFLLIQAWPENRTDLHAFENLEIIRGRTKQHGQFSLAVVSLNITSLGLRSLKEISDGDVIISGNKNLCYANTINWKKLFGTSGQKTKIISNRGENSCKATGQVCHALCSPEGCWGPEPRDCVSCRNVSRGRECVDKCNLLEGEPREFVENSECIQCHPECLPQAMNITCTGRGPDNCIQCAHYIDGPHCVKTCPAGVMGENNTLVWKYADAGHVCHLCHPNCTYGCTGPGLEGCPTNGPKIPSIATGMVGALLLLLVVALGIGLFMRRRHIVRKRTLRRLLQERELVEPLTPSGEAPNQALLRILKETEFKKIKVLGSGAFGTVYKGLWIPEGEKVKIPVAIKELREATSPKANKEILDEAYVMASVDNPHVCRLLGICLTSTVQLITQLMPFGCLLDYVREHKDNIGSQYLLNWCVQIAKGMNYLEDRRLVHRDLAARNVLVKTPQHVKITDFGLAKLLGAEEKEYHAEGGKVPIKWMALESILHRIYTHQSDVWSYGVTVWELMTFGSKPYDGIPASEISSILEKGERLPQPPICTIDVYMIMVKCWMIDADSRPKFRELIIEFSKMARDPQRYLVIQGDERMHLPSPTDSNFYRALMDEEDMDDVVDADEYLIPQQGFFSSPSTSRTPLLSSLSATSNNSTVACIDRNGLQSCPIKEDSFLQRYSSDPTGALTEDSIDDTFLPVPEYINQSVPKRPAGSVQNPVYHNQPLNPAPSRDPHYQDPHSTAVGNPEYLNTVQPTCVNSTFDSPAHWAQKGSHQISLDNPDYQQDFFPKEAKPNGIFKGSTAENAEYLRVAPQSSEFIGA
smiles,measurement,setting,value
"Cn1nnc2c(C(N)=O)ncn2c1=O [TMZ, temozolomide, reference compound]",IC50,[1],2.04 mM
same,IC50,[2],501 µM
"c1cnc2ccc(Nc3ncnc4ccc(-c5cnn(C6CCNCC6)c5)cc34)cc2c1 [SMUZ106, 6-(1-(piperidin-4-yl)-1H-pyrazol-4-yl)-N-(quinolin-6-yl)quinazolin-4-amine]",cells in S phase,[3]; 2.5 μM,27.08%
same,cells in G0/G1 phase,[3]; 2.5 μM,54.44%
same,cells in S phase,[3]; 5 μM,24.01%
same,cells in G0/G1 phase,[3]; 5 μM,58.17%
same,cells in S phase,[3]; 10 μM,20.78%
same,cells in G0/G1 phase,[3]; 10 μM,62.50%
same,IC50,[4],44.1 nM
same,IC50,[5],930 nM
same,IC50,[1],0.00786 mM
same,IC50,[6],4.36 µM
same,IC50,[2],7.43 µM
same,IC50,[7],10.3 µM
same,IC50,[8],874 nM
same,solubility,"[9]; artificial gastric juice, simulated gastric fluid",16.8 mg/mL
same,solubility,"[9]; artificial intestinal juice, fassgf or other biorelevant",0.22 mg/mL
same,solubility,[9]; medium not named in the sentence (values match artificial gastric juice of Table S2),16.8 mg/mL
same,solubility,"[9]; normal saline, saline or isotonic",3.69 mg/mL
same,inhibition at 1 µM,[10],75.4%
same,inhibition at 1 µM,[11],87.3%
same,inhibition at 1 µM,[12],98.7%
same,percentage of apoptotic cells,[13]; 2.5 μM,2.34%
same,percentage of apoptotic cells,[13]; 5 μM,2.70%
same,percentage of apoptotic cells,[13]; 10 μM,3.02%
same,bioavailability,"[14]; oral, p.o. 100 mg/kg vs i.v. 25 mg/kg, read-out: F (absolute bioavailability)",29%
same,AUC(0-inf),"[14]; po, p.o. 100 mg/kg",7510 ± 1060 ng·h/mL
same,Cmax,"[14]; po, p.o. 100 mg/kg",1190 ± 464 ng/mL
same,Tmax,"[14]; po, p.o. 100 mg/kg",6 h
same,half-life,"[14]; po, p.o. 100 mg/kg",52.2 ± 0.6 min
same,MRT last,"[14]; po, p.o. 100 mg/kg, read-out: MRT0→t",6.32 ± 0.22 h
same,phosphorylation levels of AKT and Erk1/2,[15],did not significantly downregulate
same,protein expression level of total EGFR,[15],remained unchanged
same,protein level of phospho-EGFR,[15],decreased dose dependently
same,phosphorylation levels of AKT and Erk1/2,[16],did not significantly downregulate
same,protein expression level of total EGFR,[16],remained unchanged
same,protein level of phospho-EGFR,[16],decreased dose dependently
same,kinase selectivity,[17],excellent selectivity to EGFR
same,clonogenicity (number of colonies),[18],significantly decreased the clonogenicity
same,clone formation,[19],could inhibit the proliferation of TMZ-resistant U87MG cells
same,clonogenicity (number of colonies),[20],significantly decreased the clonogenicity
same,clonogenicity (number of colonies),[21],significantly decreased the clonogenicity
